Source: patent US20220289728A1, “MODULATORS OF TREX1” (Constellation Pharmaceuticals, Inc., priority 2019, published 2022)

Tests used:
full length human TREX1 = target: T1, full length human TREX1 (Homo sapiens, UniProt Q9NSU2); assay: TREX1 Biochemical Assay (fluorescence, dsDNA substrate degradation); conditions: 150 pM TREX1, 60 nM dsDNA substrate, 25 minutes at room temperature
T1 construct: N-terminally His-Tev tagged full length human TREX1; His-TEV (His tag with TEV site) (N); made in house; host or cells: E. coli
T1 sequence (Q9NSU2 1-314): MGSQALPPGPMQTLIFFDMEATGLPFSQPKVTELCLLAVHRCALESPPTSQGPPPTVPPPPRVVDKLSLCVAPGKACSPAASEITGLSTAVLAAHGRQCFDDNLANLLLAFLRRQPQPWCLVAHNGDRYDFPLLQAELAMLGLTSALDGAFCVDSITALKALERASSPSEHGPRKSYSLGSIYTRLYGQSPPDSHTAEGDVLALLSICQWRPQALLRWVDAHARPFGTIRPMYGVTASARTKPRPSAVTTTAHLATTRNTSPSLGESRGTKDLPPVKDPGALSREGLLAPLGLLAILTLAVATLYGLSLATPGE
Summary of the method: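 N-terminally His-Tev-tagged TREX1 was expressed in E. coli; 150 pM enzyme was run with 60 nM TEX615/quencher-labelled dsDNA at pH 7.4 in 1.0% DMSO for 25 min at room temperature, then quenched with EDTA. Fluorescence at 615 nm (570 nm excitation) was normalised to pre-quenched and no-inhibitor controls, and IC50 came from four-parameter fits.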

[1] = target: T2, human TREX2 (residues M44-A279) (Homo sapiens, UniProt Q9BQ50); assay: TREX2 Biochemical Assay (fluorescence, dsDNA substrate degradation); conditions: 2.5 nM TREX2, 60 nM dsDNA substrate, 25 minutes at room temperature
T2 construct: human TREX2 (residues M44-A279, expressed in E. coli); His-TEV (His tag with TEV site) (N); made in house; host or cells: E. coli
T2 sequence (Q9BQ50 44-279 isoform Q9BQ50-1): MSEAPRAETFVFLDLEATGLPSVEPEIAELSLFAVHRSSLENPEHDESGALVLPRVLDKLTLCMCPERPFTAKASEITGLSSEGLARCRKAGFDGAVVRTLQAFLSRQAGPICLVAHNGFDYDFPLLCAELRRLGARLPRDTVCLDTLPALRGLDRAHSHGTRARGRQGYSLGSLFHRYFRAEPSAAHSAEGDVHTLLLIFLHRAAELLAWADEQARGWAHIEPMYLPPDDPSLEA
Summary of the method: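 Final conditions: 2.5 nM His-Tev-tagged TREX2 (E. coli-expressed), 60 nM fluorophore/quencher-labelled dsDNA, 50 mM Tris pH 7.4, 150 mM NaCl, 100 mM MgCl2, 1% DMSO; 10-point compound dose-response. Incubated 25 min at room temperature, then EDTA-quenched; fluorescence read at ex 570/em 615 nm. IC50 from four-parameter fit against pre-quenched and no-inhibitor controls.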

HCT116 dual cells = assay: HCT116 Cell Assay (Lucia luciferase reporter of Type I interferon induction); type: cell-based, human; conditions: Homo sapiens, HCT-116, 4 h pre-treatment, pBR322/BstNI DNA transfection, Lucia luciferase at 48 h; relative to 10 uM compound 39
Summary of the method: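 Cells were pretreated with compound for 4 h (≤0.1% DMSO), then transfected with pBR322/BstNI DNA (1.25 ug/mL; 100 ng/well) using Lipofectamine LTX. Secreted Lucia luciferase in the medium was read after 48 h at 37 °C. EC50 came from four-parameter fits normalised to no-inhibitor and 10 uM reference-inhibitor controls.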

Row | Structure (SMILES) | IC50 (full length human TREX1) | IC50 [1] | EC50 (HCT116 dual cells)
1 | C[C@H](c1ccccc1)N(C)c1nc(C(=O)Nc2cnoc2)c(O)c(=O)n1C [Example 27] | < 100 nM | < 1000 nM | 1000 to 10000 nM
2 | C[C@@H](c1ccccc1)N(C)c1nc(C(=O)Nc2cnoc2)c(O)c(=O)n1C [Example 28] | < 100 nM | 1000 to 10000 nM | 1000 to 10000 nM
3 | CC(C)N(Cc1ccccc1)c1nc(C(=O)Nc2cnoc2)c(O)c(=O)n1C [Example 29] | < 100 nM | 1000 to 10000 nM | 10000 to 100000 nM
4 | CN(c1nc(C(=O)Nc2cnoc2)c(O)c(=O)n1C)C(c1ccccc1)c1ccccc1 [Example 30] | < 100 nM | < 1000 nM | < 1000 nM
5 | CN(Cc1cccc2c1cnn2C)c1nc(C(=O)Nc2cnoc2)c(O)c(=O)n1C [Example 31] | < 100 nM | 1000 to 10000 nM | 1000 to 10000 nM
6 | CN(Cc1cccnc1)c1nc(C(=O)Nc2cnoc2)c(O)c(=O)n1C [Example 32] | < 100 nM | 1000 to 10000 nM | 10000 to 100000 nM
7 | CN(c1nc(C(=O)Nc2cnoc2)c(O)c(=O)n1C)C(C)(c1ccccc1)c1ccccc1 [Example 52] | < 100 nM | 1000 to 10000 nM | 10000 to 100000 nM
8 | CN(Cc1ccccc1Cl)c1nc(C(=O)Nc2cnoc2)c(O)c(=O)n1C [Example 74] | < 100 nM | 1000 to 10000 nM | 1000 to 10000 nM

Other lines, results leading:

Row | IC50 (full length human TREX1) | IC50 [1] | EC50 (HCT116 dual cells) | Structure (SMILES)
9 | < 100 nM | 1000 to 10000 nM | 10000 to 100000 nM | Cc1c(-c2ccncc2CN(C)c2nc(C(=O)Nc3cnoc3)c(O)c(=O)n2C)cnn1C [Example 35]
10 | < 100 nM | 1000 to 10000 nM | 10000 to 100000 nM | CN(Cc1ccccc1-c1cnn(C)c1)c1nc(C(=O)Nc2cnoc2)c(O)c(=O)n1C [Example 78]
11 | < 100 nM | 1000 to 10000 nM | 10000 to 100000 nM | Cc1nn(C)cc1-c1cncc(CN(C)c2nc(C(=O)Nc3cnoc3)c(O)c(=O)n2C)n1 [Example 79]
12 | < 100 nM | 1000 to 10000 nM | 10000 to 100000 nM | Cc1nn(C)cc1-c1cnc(CN(C)c2nc(C(=O)Nc3cnoc3)c(O)c(=O)n2C)cn1 [Example 80]
